As a reminder, the % Inhibition is how much of the control response was suppressed. In general, inhibition refers to the drop in the measured response relative to a control, in per cent. The IC50 is the concentration that gives 50% inhibition.

The source of these data is publication PMC11080515, “Novel anthraquinone amide derivatives as potential glyoxalase-I inhibitors” (Journal of Medicine and Life, 2024).

Where “and” joins values, the source holds several entries; their conditions need not be identical. Equal values may be shown once. Read-outs that look alike come from different tables or passages of the source.

This experiment concerns the target T1, Recombinant human Glo-I (rhGlo-I) (Homo sapiens, UniProt Q04760).
T1 construct: purchased R&D Systems Corporation
T1 sequence (Q04760 2-184 limits assumed): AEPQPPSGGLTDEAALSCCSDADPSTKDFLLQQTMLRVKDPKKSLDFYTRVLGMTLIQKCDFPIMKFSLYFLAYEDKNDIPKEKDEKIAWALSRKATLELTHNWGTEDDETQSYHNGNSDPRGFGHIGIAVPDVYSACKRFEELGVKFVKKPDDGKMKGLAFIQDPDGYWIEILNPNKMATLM
Put plainly: In vitro Glo-I enzyme inhibition assay (spectrophotometric, 240 nm). The arrangement: average inhibitory activity: dose or concentration left out as unconfirmed. The experiment is classed as biochemical. The settings on record: for % Inhibition / inhibition at 1.25 µM / inhibition at 2.5 µM / inhibition at 5 µM / inhibition at 10 µM / inhibition at 0.625 µM: single replicates. Here is the method: Glo-I inhibitory action was evaluated following the methodology described by Al-Balas et al.. Recombinant human Glo-I (rhGlo-I) was procured from R&D Systems Corporation and […] in sterile deionized water at a precise concentration of 0.5 mg/ml before being reconstituted. The reconstituted rhGlo-I was stored at -70 °C until further use. Dimethyl sulfoxide (DMSO) was used to dissolve the test compounds to produce stock solutions with a 10 mM concentration. The assay buffer required for the experiment was made by mixing 0.1 M sodium phosphate monobasic solution with 0.1 M sodium phosphate dibasic solution, resulting in a pH range of 7.0–7.2. The reduced glutathione and methylglyoxal solutions were combined with a sufficient 0.1 M sodium phosphate assay buffer volume to create the substrate combination. In a cuvette, the assay buffer, substrate solution, and Glo-I enzyme were combined with the synthesized products at the required concentration. […] The maximum absorbance (γmax) was recorded at 240 nm.
In this study, the inhibitory activity of all synthesized compounds against the Glo-I enzyme was evaluated in vitro using recombinant human Glo-I obtained from R&D Systems Corporation. The methodology previously described was employed, which involved measuring the inhibition of Glo-I activity and substrate hydrolysis using a spectrophotometer at 240 nm. […] The activity profile of the tested compounds against Glo-I is depicted in Figure 12.

The mark [1] stands for this setting: concentration 0.625 µM, 0.625 µM.
The mark [2] stands for this setting: from the % inhibition curve, 0.625-10 µM, read-out: Calculated IC50.
Setting [3] is: rhGlo-I, 25 °C, pH 7.0-7.2, read-out: IC50.

In the case of `O=C(/C=C/c1ccc(O)c(O)c1)Nc1cccc2c1C(=O)c1ccccc1C2=O` [MQ1, (E)-3-(3,4-dihydroxyphenyl)-N-(9, 10-dioxo-9, 10-dihydroanthracen-1-yl) acrylamide], the “% Inhibition” value reads like this: under setting [1], 4.207% and 6.929% and 8.658%; (concentration 1.25 µM, 1.25 µM) 11.45% and 12.03%; (concentration 2.5 µM, 2.5 µM) 13.44% and 14.71%; (concentration 5 µM, 5 µM) 20.12% and 19.93%; (concentration 10 µM, 10 µM) 34.53% and 33.46%. Under “concentration 1.25 µM”, the inhibition at 1.25 µM came out at 12%. The inhibition at 2.5 µM (concentration 2.5 µM) was 11.8%. Also, the inhibition at 5 µM (concentration 5 µM) was found to be 18.8%. For the same compound, where the note is “concentration 10 µM”, the inhibition at 10 µM was 33.4%. For the same compound, the IC50 by setting is: under setting [2], 27.9 µM; under setting [3], 27.9 µM.

In the case of `O=C(/C=C/c1ccc(O)c(O)c1)Nc1ccc2c(c1)C(=O)c1ccccc1C2=O` [MQ3, (E)-3-(3,4-dihydroxyphenyl)-N-(9, 10-dioxo-9, 10-dihydroanthracen-2-yl) acrylamide], the average inhibitory activity is listed as 96.63%. For the same compound, the inhibition at 0.625 µM (concentration 0.625 µM) worked out at 27.5%. Moreover, the “% Inhibition” value under setting [1] is 28.34% and 22.6726%. The inhibition at 1.25 µM (concentration 1.25 µM) was determined as 39.2%. For the same compound, the “% Inhibition” value (concentration 1.25 µM, 1.25 µM) is 42.53% and 40.76%. For the same compound, the inhibition at 2.5 µM (concentration 2.5 µM) was 69.6%. The “% Inhibition” value (concentration 2.5 µM, 2.5 µM) was 70.04% and 70.55%. Further, the inhibition at 5 µM (concentration 5 µM) turned out to be 82.3%. Besides, where the note is “concentration 5 µM, 5 µM”, the “% Inhibition” value is 84.9% and 85.44%. For the same compound, the inhibition at 10 µM (concentration 10 µM) amounted to 97.5%. Also, the “% Inhibition” value (concentration 10 µM, 10 µM) was 93.8% and 98.6%. For the same compound, the half-maximal inhibitory concentration (IC50) under setting [2] is 1.46 µM. Besides, the IC50 under setting [3] is 1.46 µM and 1.45 µM.

As for `O=C(C=Cc1ccccc1)Nc1ccc2c(c1)C(=O)c1ccccc1C2=O` [MQ4, N-(9, 10-dioxo-9, 10-dihydroanthracen-2-yl) cinnamamide], the “% Inhibition” value is 6.208% and 1.894% and 2.93% under setting [1]; 3.871% and 7.392% (concentration 1.25 µM, 1.25 µM); 12.3% and 11.67% (concentration 2.5 µM, 2.5 µM); 20.18% and 23.19% (concentration 5 µM, 5 µM); 41.45% and 37.85% (concentration 10 µM, 10 µM). Moreover, for the setting “concentration 1.25 µM”, the inhibition at 1.25 µM worked out at 5.03%. Besides, under “concentration 2.5 µM”, the inhibition at 2.5 µM came out at 10.8%. In addition, the inhibition at 5 µM (concentration 5 µM) came to 19.4%. Further, where the note is “concentration 10 µM”, the inhibition at 10 µM came to 40.4%. Besides, the IC50 is 14.5 µM under setting [2] and 14.5 µM under setting [3].

`O=C(C=Cc1ccccc1)Nc1cccc2c1C(=O)c1ccccc1C2=O` [MQ5, N-(9, 10-dioxo-9, 10-dihydroanthracen-1-yl) cinnamamide]: for the setting “concentration 0.625 µM”, the inhibition at 0.625 µM is 8.82%. In addition, the “% Inhibition” value runs as follows: under setting [1], 8.55% and 10.84%; (concentration 1.25 µM, 1.25 µM) 9.974% and 12.33%; (concentration 2.5 µM, 2.5 µM) 12.23% and 12.25%; (concentration 5 µM, 5 µM) 12.81% and 20.99%; (concentration 10 µM, 10 µM) 29% and 27.36%. Further, the inhibition at 1.25 µM (concentration 1.25 µM) turned out to be 10.2%. Besides, the inhibition at 2.5 µM (concentration 2.5 µM) came to 14.3%. The inhibition at 5 µM (concentration 5 µM) was determined as 11.6%. Also, the inhibition at 10 µM (concentration 10 µM) was 22%. Also, the concentration for half-maximal inhibition (IC50) was 107 µM under setting [2] and 107 µM under setting [3].
